Activity data for one compound are collected here from ChEMBL document CHEMBL5678818, “Discovery of potent SOS1 inhibitors that block RAS activation via disruption of the RAS-SOS1 interaction” (Proc Natl Acad Sci U S A, 2019).

Experiment [1] deals with T1, NUAK family SNF1-like kinase 1 (Homo sapiens) (UniProt O60285).
T1 sequence (whole entry): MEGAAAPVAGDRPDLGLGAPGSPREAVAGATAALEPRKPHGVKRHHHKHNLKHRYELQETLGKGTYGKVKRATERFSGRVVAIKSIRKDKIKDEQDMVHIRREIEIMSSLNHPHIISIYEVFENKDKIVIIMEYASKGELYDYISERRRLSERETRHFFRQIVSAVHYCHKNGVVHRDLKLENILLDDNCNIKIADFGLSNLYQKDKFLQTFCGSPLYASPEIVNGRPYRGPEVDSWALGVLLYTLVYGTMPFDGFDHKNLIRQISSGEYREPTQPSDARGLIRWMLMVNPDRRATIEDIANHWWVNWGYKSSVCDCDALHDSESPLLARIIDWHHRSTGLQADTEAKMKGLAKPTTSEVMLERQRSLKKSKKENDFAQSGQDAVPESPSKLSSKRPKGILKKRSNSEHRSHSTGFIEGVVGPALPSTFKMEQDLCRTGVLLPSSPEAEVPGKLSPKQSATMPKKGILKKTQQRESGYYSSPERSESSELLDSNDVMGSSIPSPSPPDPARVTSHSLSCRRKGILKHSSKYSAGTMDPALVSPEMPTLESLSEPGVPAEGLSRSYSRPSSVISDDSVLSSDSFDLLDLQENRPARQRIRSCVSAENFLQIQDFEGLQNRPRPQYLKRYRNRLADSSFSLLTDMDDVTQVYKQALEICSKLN
The experiment is described as follows: Inhibition of ARK5 (unknown origin) assessed as residual activity at 100 nM by KINOMEscan analysis relative to control.

Experiment [2] has as its target Mitotic checkpoint serine/threonine-protein kinase BUB1 (Homo sapiens) (UniProt O43683). The experiment is described as follows: Inhibition of BUB1 (unknown origin) assessed as residual activity at 100 nM by KINOMEscan analysis relative to control.
The target of experiment [3] is Proto-oncogene tyrosine-protein kinase Src (Homo sapiens) (UniProt P12931). The experiment is described as follows: Inhibition of SRC (unknown origin) assessed as residual activity at 100 nM by KINOMEscan analysis relative to control.
Sequence of Proto-oncogene tyrosine-protein kinase Src (Homo sapiens) (P12931 2-536 limits assumed): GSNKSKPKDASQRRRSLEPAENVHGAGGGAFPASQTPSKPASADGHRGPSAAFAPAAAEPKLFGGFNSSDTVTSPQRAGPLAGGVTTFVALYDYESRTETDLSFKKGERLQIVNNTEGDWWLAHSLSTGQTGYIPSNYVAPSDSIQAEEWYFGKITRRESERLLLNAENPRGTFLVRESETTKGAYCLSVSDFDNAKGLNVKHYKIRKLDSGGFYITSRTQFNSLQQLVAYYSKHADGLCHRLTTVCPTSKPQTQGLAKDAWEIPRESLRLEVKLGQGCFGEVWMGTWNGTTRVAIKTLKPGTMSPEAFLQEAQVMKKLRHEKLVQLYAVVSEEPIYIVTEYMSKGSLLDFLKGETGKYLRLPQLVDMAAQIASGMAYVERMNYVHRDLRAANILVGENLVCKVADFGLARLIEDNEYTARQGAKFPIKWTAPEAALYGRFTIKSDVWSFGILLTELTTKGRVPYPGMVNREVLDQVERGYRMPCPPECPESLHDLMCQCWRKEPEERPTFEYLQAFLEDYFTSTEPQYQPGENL
The target in experiment [4] is T2, Mitogen-activated protein kinase kinase kinase 2 (Homo sapiens) (UniProt Q9Y2U5).
T2 sequence (whole entry): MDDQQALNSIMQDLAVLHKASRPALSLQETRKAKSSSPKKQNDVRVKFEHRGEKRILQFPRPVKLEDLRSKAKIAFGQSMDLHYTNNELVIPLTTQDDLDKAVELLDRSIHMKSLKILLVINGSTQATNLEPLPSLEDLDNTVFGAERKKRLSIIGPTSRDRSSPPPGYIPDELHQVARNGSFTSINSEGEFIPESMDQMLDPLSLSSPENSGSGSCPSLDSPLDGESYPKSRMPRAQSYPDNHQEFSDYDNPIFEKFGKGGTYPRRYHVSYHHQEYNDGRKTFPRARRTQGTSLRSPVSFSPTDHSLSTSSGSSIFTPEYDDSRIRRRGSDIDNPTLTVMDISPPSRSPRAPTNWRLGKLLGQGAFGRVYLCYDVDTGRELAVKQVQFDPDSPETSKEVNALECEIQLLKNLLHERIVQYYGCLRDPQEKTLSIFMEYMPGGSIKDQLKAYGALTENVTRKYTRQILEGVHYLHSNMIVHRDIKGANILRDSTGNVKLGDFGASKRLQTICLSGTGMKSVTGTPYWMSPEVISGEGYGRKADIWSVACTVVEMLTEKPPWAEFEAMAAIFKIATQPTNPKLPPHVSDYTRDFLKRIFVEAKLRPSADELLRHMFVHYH
The experiment is described as follows: Inhibition of MAP3K2 (unknown origin) assessed as residual activity at 100 nM by KINOMEscan analysis relative to control.

Experiment [5] concerns the target 5'-AMP-activated protein kinase catalytic subunit alpha-2 (Homo sapiens) (UniProt P54646). The experiment is described as follows: Inhibition of AMPK-alpha2 (unknown origin) assessed as residual activity at 100 nM by KINOMEscan analysis relative to control.
Experiment [6] has as its target T3, Uncharacterized serine/threonine-protein kinase SBK3 (Homo sapiens) (UniProt P0C264).
T3 sequence (whole entry): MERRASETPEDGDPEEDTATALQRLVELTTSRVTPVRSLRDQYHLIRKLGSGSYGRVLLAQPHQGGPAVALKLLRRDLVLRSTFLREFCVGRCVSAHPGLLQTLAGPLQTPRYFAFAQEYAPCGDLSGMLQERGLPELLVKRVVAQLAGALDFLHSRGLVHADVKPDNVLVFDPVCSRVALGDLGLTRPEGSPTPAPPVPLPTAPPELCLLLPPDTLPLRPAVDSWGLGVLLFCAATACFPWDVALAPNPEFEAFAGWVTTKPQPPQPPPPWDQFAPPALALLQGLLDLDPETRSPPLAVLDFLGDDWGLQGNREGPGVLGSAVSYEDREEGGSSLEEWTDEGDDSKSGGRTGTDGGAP
As to the kind of experiment: Inhibition of SgK110 (unknown origin) assessed as residual activity at 100 nM by KINOMEscan analysis relative to control.

Experiment [7] addresses T4, Serine/threonine-protein kinase NLK (Homo sapiens) (UniProt Q9UBE8).
T4 sequence (whole entry): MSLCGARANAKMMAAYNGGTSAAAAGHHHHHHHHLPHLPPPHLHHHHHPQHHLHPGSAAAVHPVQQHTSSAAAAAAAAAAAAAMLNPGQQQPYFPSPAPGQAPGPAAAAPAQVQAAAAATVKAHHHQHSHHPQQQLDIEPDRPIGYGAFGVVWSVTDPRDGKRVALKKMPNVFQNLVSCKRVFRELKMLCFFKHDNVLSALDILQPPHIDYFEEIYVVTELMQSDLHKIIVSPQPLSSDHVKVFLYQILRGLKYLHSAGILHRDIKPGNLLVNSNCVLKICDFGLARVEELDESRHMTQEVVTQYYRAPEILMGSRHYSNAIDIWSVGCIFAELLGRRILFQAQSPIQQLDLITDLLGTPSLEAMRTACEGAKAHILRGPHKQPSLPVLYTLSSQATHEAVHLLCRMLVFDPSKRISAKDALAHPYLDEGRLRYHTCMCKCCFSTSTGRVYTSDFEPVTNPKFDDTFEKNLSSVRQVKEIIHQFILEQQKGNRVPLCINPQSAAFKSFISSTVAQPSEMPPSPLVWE
The experiment is described as follows: Inhibition of NLK (unknown origin) assessed as residual activity at 100 nM by KINOMEscan analysis relative to control.

The target in experiment [8] is Tyrosine-protein kinase SYK (Homo sapiens) (UniProt P43405). As to the kind of experiment: Inhibition of SYK (unknown origin) assessed as residual activity at 100 nM by KINOMEscan analysis relative to control.
Experiment [9] has as its target Serine/threonine-protein kinase 35 (Homo sapiens) (UniProt Q8TDR2). The experiment is described as follows: Inhibition of STK35 (unknown origin) assessed as residual activity at 100 nM by KINOMEscan analysis relative to control.
The target of experiment [10] is Rho-associated protein kinase 1 (Homo sapiens) (UniProt Q13464). The experiment is described as follows: Inhibition of ROCK1 (unknown origin) assessed as residual activity at 100 nM by KINOMEscan analysis relative to control.
Sequence of Rho-associated protein kinase 1 (Homo sapiens) (Q13464 2-1354 limits assumed): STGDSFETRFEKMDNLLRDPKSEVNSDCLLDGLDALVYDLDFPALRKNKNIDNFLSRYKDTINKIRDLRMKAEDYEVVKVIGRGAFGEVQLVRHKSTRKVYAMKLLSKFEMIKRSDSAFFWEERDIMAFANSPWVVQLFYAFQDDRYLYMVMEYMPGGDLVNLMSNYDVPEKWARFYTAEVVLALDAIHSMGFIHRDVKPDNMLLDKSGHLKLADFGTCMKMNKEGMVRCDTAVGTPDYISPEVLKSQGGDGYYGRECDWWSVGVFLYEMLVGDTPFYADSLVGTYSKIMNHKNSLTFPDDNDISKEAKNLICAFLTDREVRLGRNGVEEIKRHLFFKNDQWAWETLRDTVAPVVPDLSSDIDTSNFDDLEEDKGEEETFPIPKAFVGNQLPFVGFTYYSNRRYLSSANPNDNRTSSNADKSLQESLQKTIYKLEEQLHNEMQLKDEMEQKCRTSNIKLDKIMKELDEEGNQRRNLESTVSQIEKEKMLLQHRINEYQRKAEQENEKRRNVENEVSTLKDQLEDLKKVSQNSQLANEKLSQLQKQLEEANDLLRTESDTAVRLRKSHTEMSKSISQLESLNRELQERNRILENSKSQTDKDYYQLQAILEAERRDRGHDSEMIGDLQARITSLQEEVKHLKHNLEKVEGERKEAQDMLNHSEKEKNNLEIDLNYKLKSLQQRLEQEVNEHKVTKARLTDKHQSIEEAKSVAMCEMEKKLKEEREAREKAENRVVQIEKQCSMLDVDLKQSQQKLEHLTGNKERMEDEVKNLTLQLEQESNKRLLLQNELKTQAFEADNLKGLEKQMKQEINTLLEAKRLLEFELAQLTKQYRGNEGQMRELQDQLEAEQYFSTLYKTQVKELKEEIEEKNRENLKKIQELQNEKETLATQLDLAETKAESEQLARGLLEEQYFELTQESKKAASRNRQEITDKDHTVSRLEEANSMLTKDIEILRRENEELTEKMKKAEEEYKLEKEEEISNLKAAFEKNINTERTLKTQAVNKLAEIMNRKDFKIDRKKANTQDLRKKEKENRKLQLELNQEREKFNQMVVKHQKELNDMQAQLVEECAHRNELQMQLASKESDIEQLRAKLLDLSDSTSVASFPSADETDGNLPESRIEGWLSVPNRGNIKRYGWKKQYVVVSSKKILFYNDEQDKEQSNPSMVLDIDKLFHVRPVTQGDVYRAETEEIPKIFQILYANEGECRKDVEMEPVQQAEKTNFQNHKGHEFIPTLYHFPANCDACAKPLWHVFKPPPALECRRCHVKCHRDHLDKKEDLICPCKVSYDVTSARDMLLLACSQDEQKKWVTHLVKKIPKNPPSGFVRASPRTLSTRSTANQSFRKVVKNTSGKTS
The target of experiment [11] is Dual specificity protein kinase CLK3 (Homo sapiens) (UniProt P49761). The experiment is described as follows: Inhibition of CLK3 (unknown origin) assessed as residual activity at 100 nM by KINOMEscan analysis relative to control.
Sequence of Dual specificity protein kinase CLK3 (Homo sapiens) (P49761 whole entry, looked up): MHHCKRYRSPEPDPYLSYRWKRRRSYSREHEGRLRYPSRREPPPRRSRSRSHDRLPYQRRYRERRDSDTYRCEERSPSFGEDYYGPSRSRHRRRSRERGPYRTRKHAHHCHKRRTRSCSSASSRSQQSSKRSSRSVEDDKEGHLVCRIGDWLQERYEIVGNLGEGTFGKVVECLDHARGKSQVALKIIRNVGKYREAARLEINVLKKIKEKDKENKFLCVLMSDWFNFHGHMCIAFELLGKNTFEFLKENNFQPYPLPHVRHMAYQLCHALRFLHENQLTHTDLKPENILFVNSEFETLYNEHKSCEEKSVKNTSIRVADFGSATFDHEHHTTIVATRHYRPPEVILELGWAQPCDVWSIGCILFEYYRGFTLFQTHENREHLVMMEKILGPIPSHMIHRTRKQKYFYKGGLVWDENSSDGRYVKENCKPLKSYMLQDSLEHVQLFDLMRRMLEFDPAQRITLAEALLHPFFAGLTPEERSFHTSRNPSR

Sequence of Serine/threonine-protein kinase 35 (Homo sapiens) (Q8TDR2 whole entry): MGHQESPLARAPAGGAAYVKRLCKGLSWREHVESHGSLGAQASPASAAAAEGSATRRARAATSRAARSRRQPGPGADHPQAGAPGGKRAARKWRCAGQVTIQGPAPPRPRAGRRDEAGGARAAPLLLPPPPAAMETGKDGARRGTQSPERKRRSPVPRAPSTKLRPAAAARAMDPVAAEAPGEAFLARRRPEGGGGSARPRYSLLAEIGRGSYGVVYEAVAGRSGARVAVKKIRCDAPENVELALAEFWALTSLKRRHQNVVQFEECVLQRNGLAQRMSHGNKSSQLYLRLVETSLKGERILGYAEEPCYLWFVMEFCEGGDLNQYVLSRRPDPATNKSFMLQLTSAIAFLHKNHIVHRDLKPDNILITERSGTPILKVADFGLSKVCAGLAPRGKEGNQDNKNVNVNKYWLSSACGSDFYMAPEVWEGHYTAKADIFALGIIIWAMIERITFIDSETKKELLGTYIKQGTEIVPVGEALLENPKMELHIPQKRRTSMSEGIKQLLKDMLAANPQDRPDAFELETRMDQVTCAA
Sequence of 5'-AMP-activated protein kinase catalytic subunit alpha-2 (Homo sapiens) (P54646 whole entry, looked up): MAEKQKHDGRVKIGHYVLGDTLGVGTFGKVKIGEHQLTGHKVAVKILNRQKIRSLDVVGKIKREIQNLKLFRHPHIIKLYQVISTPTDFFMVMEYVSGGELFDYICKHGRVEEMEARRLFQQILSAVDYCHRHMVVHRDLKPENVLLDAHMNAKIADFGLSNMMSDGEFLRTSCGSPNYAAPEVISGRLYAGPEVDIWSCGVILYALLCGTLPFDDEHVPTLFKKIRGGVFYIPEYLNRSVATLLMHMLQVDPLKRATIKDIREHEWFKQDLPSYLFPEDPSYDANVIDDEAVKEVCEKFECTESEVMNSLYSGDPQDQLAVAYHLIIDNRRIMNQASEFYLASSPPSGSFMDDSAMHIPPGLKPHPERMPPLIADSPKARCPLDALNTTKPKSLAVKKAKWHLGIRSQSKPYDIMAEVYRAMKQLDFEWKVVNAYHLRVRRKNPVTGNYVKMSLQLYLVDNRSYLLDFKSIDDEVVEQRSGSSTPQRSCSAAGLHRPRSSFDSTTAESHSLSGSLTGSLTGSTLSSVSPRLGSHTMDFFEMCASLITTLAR
Sequence of Mitotic checkpoint serine/threonine-protein kinase BUB1 (Homo sapiens) (O43683 whole entry, looked up): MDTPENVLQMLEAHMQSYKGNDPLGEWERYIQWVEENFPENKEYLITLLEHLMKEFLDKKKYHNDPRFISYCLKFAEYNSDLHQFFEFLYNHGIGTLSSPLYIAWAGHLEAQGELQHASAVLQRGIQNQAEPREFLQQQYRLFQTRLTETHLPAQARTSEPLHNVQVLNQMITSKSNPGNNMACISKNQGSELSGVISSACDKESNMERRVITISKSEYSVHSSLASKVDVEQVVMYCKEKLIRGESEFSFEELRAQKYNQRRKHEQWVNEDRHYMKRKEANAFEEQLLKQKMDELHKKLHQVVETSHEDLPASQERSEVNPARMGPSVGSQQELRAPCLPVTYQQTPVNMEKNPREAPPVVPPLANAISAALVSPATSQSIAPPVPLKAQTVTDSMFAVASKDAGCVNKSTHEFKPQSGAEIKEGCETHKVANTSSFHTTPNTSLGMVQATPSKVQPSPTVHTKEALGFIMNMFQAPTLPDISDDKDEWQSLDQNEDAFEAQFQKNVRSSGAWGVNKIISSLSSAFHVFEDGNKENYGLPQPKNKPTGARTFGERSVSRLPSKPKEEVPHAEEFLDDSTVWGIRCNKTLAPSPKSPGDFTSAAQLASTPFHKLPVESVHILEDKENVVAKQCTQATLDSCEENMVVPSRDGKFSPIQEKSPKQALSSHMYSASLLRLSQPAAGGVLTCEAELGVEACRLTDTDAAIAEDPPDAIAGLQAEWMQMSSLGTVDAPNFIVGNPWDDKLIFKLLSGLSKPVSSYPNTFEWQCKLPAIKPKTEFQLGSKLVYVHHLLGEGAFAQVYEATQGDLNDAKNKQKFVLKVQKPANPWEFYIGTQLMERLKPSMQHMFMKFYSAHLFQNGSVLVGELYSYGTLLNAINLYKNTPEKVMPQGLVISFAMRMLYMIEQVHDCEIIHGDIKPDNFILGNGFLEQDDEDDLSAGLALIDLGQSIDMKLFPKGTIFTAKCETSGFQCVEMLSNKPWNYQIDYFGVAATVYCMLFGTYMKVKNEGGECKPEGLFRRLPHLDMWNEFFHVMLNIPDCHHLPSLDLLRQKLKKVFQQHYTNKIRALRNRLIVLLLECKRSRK

Turning to `COc1cc2ncnc(N[C@H](C)c3cccc4ccccc34)c2cc1OC`, the Activity in experiment [1] was found to be 87%; in experiment [2] it was 100%; in experiment [3], 90%; in [4] it was 87%; in [5] it was 52%; in experiment [6] it was 100%. Also, the Activity was 82% in [7]; 100% in experiment [8]; 98% in experiment [9]; 77% in experiment [10]; 92% in [11].
